US7595395B2, “Gabaergic agents to treat memory deficits” (priority 2005, dated 2009)
pKi: −log10 of the molar value. Read-outs that look alike come from different tables or passages of the source.

How the values were obtained:
GABAA/α1 receptors = GABAA/α1 receptors (Homo sapiens, UniProt P14867+P18507); conditions: Huang et al. 2000; cited from earlier work
[1] = system: alcohol preferring rats (P) and high alcohol drinking rats (HAD); conditions: cited from earlier work
[2] = molecular target: T1, α1β3γ2 benzodiazepine receptor GABA(A) isoform (UniProt P14867+P18507); experiment: Radioligand competition binding, α1β3γ2 BzR/GABA(A) isoform; set-up: Ki α1; means of two determinations; Ki α1; α1; species or system human and rat; conditions: means of two determinations, read-out: Ki α1
T1 sequence (P14867 1-456): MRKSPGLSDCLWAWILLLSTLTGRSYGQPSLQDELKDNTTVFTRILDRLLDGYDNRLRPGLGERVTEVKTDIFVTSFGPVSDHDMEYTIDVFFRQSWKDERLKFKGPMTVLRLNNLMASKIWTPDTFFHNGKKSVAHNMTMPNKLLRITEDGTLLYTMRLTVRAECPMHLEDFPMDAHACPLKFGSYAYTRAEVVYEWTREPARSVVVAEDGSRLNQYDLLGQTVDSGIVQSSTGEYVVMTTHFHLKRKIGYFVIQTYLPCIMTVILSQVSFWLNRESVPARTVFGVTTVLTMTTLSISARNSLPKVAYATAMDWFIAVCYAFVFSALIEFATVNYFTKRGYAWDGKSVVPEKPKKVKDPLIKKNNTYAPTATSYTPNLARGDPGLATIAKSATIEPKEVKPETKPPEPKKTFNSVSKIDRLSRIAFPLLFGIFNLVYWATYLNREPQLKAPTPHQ
T1 sequence (P18507 1-475): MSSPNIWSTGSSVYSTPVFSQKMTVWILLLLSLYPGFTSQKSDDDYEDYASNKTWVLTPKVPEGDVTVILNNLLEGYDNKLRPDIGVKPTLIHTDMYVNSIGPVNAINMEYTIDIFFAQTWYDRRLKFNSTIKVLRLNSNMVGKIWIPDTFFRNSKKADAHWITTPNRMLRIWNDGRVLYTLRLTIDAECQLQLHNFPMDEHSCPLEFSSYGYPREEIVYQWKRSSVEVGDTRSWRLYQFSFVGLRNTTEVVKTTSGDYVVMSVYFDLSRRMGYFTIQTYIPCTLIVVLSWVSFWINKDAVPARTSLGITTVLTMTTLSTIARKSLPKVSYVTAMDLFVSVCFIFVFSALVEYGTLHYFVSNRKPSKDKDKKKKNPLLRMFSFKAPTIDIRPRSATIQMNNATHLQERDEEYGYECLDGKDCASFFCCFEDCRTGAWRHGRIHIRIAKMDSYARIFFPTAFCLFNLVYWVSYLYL
Method: (§1) The affinity of all ligands at the 6 major recombinant GABAA/BzR subtypes was measured by competition for [^3H]Ro15-1788 binding to HEK-T cells expressing both human and rat GABAA/Bz receptors of composition α1β2γ2 (α1), α2β2γ2 (α2), α3β2γ2 (α3), α4β2γ2 (α4), α5β2γ2 (α5) and α6β2γ2 (α6). It is well known that the β2 and β3 subunits can be interchanged with no effect on Bz ligand affinity or efficacy. […] These studies are similar to those performed in the laboratory of Bryan Roth who has already expressed the receptors employing the work of Kucken et. al. and Gray et. al.
(§2) In brief, for membrane preparations, the cells were scraped on to the ice and diluted into 5 mL of phosphate buffered saline (pH=7.40) and cells pelleted by centrifugation for 5 min. at 4° C. The pellet was resuspended in 1 mL of 50 mM Tris-acetate buffer (pH 7.4) and centrifuged at 18,000 g for 20 min. […] Each pellet were diluted to 6 mL and then 100 μL of membranes were incubated with approximately 1 nM final concentration of [^3H]Ro 15-1788 in a total volume of 250 μL together with serial dilutions of test compound for 90 min. on ice. The membranes were harvested in polyethyleneimine-pretreated Whatman GF/C filters and after drying and addition of scintillation cocktail, counted in a scintillation counter. The cpm retained on the filters was plotted against log concentration (M) and fitted to one site competition equation to obtain the Ki using Graphpad Prizm (V4.0) using the Cheng-Prusoff approximation.

[3] = molecular target: T2, α2β3γ2 benzodiazepine receptor GABA(A) isoform (UniProt P18507+P47869); experiment: Radioligand competition binding, α2β3γ2 BzR/GABA(A) isoform; set-up: species or system human and rat; conditions: means of two determinations, read-out: Ki α2
T2 sequence (P18507 1-475): T1 sequence (P18507 1-475)
T2 sequence (P47869 1-451): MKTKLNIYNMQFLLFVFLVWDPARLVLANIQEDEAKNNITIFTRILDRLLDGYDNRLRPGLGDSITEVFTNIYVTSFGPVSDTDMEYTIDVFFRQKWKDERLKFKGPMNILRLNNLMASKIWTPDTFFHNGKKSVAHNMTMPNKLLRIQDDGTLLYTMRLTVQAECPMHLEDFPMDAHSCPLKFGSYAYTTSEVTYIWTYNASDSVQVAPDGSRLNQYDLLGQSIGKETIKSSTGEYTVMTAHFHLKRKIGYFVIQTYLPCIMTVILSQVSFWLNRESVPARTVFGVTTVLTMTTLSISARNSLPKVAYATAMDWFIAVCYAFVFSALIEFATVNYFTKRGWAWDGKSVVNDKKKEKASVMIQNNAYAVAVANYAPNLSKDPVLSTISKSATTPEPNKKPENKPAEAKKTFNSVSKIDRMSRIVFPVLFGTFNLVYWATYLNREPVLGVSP
Method: as §1, §2

[4] = molecular target: T3, α5β3γ2 benzodiazepine receptor GABA(A) isoform (UniProt P18507+P31644); experiment: Radioligand competition binding, α5β3γ2 BzR/GABA(A) isoform; set-up: Ki α5; means of two determinations; Ki α5; α5; other: text; species or system human and rat
T3 sequence (P18507 1-475): T1 sequence (P18507 1-475)
T3 sequence (P31644 1-462): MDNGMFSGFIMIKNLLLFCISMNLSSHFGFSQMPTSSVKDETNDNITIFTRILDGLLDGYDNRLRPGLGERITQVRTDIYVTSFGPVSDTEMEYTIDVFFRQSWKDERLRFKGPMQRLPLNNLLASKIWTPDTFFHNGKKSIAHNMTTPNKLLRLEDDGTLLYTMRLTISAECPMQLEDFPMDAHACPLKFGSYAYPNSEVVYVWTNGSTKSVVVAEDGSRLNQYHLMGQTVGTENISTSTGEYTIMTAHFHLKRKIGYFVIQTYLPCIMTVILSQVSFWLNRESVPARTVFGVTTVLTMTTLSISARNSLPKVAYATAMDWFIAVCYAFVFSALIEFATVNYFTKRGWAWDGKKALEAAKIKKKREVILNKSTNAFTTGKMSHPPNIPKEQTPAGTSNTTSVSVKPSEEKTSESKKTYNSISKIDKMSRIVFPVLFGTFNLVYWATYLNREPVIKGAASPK

[5] = molecular target: T4, α3β3γ2 benzodiazepine receptor GABA(A) isoform (UniProt P18507+P34903); experiment: Radioligand competition binding, α3β3γ2 BzR/GABA(A) isoform; set-up: species or system human and rat; conditions: means of two determinations, read-out: Ki α3
T4 sequence (P18507 1-475): T1 sequence (P18507 1-475)
T4 sequence (P34903 1-492): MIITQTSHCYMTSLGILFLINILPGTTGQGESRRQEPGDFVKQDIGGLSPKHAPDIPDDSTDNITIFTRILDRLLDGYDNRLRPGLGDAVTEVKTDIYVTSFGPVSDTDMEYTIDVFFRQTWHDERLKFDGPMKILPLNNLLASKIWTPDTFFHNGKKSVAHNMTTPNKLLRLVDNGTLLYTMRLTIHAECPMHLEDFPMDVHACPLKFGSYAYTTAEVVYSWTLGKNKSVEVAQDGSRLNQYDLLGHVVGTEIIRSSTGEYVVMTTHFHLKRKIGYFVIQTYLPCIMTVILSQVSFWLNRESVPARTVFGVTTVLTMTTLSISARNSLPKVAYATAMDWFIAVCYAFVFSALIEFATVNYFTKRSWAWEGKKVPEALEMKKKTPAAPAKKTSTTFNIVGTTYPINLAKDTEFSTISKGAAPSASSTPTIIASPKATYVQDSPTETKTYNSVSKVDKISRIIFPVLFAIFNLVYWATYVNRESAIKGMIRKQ
Method: as §1, §2

[6] = molecular target: α6β3γ2 benzodiazepine receptor GABA(A) isoform (UniProt P18507+Q16445); experiment: Radioligand competition binding, α6β3γ2 BzR/GABA(A) isoform; set-up: species or system human and rat; conditions: means of two determinations, read-out: Ki α6
Method: as §1, §2

α2β3γ2 GABAA receptor = α2β3γ2 GABAA receptor (Rattus norvegicus, UniProt P18508+P23576); experiment: Two-electrode voltage clamp in Xenopus oocytes, α2β3γ2
α6β3γ2 GABAA receptor = α6β3γ2 GABAA receptor (Rattus norvegicus, UniProt P18508+P30191); experiment: Two-electrode voltage clamp in Xenopus oocytes, α6β3γ2
α1β3γ2 GABAA receptor = α1β3γ2 GABAA receptor (Rattus norvegicus, UniProt P18508+P62813); experiment: Two-electrode voltage clamp in Xenopus oocytes, α1β3γ2
α4β3γ2 GABAA receptor = α4β3γ2 GABAA receptor (Rattus norvegicus, UniProt P18508+P28471); experiment: Two-electrode voltage clamp in Xenopus oocytes, α4β3γ2
α3β3γ2 GABAA receptor = α3β3γ2 GABAA receptor (Rattus norvegicus, UniProt P18508+P20236); experiment: Two-electrode voltage clamp in Xenopus oocytes, α3β3γ2
α5β3γ2 GABAA receptor = α5β3γ2 GABAA receptor (Rattus norvegicus, UniProt P18508+P19969); experiment: Two-electrode voltage clamp in Xenopus oocytes, α5β3γ2
[7] = system: GABAA receptor subtypes (alpha 1 to alpha 6 with beta 3 and gamma 2); experiment: Direct triggering of chloride currents in oocytes, all tested subtypes; format: cell-based; conditions: concentrations up to 1 μM, no GABA
[8] = read-out: Ki α5; Table I; means of two determinations
[9] = Table 2; means of two determinations; read-out: Ki α5
[10] = read-out: Ki α5; Table 2; means of two determinations

Sequence of α1β3γ2 GABAA receptor (P62813 28-455): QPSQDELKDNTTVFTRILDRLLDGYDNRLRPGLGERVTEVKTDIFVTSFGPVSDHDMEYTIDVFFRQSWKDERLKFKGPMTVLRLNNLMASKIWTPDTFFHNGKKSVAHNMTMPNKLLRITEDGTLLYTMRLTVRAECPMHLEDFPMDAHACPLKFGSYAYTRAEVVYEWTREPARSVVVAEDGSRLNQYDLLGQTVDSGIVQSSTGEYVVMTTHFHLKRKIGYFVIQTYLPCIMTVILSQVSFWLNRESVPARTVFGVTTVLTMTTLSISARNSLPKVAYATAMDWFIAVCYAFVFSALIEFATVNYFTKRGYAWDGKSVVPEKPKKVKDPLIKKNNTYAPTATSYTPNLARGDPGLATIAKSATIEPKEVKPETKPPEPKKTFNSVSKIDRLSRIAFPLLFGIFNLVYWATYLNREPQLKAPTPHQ
Sequence of α1β3γ2 GABAA receptor (P63079 26-473 partner): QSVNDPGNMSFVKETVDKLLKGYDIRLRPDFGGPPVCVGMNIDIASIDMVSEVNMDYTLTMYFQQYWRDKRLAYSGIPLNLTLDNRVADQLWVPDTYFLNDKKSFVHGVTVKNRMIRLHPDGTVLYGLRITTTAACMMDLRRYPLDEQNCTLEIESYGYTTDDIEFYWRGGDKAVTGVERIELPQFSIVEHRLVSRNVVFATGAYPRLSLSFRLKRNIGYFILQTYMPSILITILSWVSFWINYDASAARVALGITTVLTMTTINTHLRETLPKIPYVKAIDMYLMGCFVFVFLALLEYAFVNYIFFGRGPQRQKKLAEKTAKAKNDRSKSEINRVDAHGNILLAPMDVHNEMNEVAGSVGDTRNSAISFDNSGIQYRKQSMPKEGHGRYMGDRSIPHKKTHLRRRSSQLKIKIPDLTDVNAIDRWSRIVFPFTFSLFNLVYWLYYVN
Sequence of α1β3γ2 GABAA receptor (P18508 39-466): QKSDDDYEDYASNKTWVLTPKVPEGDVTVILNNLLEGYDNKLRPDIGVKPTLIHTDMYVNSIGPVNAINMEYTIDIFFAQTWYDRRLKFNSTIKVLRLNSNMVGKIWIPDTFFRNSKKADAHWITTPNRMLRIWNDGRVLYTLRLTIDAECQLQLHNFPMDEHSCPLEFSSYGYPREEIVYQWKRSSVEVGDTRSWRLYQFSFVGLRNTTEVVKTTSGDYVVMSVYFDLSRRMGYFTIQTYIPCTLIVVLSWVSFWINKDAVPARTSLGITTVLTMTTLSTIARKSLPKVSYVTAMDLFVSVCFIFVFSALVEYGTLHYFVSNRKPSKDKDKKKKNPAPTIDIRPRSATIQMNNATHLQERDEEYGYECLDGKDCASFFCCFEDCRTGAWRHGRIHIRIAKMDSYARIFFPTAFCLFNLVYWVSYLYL
Sequence of α5β3γ2 GABAA receptor (P19969 26-464): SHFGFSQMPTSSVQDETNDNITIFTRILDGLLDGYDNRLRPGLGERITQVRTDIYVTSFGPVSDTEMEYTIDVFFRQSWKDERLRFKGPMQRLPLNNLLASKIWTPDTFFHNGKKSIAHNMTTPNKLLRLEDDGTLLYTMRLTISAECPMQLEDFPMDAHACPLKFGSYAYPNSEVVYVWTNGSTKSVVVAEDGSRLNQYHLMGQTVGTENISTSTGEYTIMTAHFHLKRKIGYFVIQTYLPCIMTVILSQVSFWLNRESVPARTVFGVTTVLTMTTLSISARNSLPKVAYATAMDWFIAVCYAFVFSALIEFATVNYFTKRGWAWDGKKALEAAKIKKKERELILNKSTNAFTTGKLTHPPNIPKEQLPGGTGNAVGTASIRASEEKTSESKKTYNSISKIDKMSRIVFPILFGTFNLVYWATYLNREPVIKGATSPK
Sequence of α5β3γ2 GABAA receptor (P63079 26-473 partner): as the sequence (P63079 26-473 partner) above
Sequence of α5β3γ2 GABAA receptor (P18508 39-466): as the sequence (P18508 39-466) above
Sequence of α3β3γ2 GABAA receptor (P20236 29-493): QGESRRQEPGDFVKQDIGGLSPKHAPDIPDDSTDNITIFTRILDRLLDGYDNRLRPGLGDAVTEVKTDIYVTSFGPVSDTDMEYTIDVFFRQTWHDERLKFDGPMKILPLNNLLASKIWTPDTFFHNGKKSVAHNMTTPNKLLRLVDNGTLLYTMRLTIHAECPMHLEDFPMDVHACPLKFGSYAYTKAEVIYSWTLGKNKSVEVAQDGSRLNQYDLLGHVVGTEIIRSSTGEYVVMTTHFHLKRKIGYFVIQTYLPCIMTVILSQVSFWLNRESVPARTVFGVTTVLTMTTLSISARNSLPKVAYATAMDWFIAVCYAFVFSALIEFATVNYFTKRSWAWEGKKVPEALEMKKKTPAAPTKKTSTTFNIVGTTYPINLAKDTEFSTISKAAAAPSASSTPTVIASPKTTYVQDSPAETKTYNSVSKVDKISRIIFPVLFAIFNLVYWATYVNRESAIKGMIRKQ
Sequence of α3β3γ2 GABAA receptor (P63079 26-473 partner): as the sequence (P63079 26-473 partner) above
Sequence of α3β3γ2 GABAA receptor (P18508 39-466): as the sequence (P18508 39-466) above
Sequence of α2β3γ2 GABAA receptor (P23576 29-451): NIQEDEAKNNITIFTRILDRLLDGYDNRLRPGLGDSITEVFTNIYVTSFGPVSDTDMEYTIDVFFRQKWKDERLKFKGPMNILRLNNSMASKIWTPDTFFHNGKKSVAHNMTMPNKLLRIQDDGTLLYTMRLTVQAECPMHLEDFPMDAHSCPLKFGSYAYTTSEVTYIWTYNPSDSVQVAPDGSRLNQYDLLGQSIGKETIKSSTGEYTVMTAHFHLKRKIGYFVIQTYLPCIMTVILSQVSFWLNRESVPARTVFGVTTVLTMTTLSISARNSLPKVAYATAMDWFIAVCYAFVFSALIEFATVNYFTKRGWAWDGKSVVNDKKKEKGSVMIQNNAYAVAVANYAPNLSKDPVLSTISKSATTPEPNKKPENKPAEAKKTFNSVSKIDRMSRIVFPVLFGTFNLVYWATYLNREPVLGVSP
Sequence of α2β3γ2 GABAA receptor (P63079 26-473 partner): as the sequence (P63079 26-473 partner) above
Sequence of α2β3γ2 GABAA receptor (P18508 39-466): as the sequence (P18508 39-466) above
Sequence of α6β3γ2 GABAA receptor (P30191 20-453): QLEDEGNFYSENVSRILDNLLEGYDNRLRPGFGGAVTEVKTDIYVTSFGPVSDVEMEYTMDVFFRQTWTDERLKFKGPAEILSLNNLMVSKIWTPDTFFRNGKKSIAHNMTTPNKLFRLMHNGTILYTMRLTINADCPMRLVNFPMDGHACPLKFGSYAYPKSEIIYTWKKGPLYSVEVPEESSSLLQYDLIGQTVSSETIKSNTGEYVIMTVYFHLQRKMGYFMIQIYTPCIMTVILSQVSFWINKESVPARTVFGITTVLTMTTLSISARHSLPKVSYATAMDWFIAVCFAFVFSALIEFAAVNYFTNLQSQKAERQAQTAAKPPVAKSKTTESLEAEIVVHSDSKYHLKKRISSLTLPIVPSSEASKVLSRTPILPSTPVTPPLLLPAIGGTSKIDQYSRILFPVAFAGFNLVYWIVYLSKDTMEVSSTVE
Sequence of α6β3γ2 GABAA receptor (P63079 26-473 partner): as the sequence (P63079 26-473 partner) above
Sequence of α6β3γ2 GABAA receptor (P18508 39-466): as the sequence (P18508 39-466) above
Sequence of α4β3γ2 GABAA receptor (P28471 36-552): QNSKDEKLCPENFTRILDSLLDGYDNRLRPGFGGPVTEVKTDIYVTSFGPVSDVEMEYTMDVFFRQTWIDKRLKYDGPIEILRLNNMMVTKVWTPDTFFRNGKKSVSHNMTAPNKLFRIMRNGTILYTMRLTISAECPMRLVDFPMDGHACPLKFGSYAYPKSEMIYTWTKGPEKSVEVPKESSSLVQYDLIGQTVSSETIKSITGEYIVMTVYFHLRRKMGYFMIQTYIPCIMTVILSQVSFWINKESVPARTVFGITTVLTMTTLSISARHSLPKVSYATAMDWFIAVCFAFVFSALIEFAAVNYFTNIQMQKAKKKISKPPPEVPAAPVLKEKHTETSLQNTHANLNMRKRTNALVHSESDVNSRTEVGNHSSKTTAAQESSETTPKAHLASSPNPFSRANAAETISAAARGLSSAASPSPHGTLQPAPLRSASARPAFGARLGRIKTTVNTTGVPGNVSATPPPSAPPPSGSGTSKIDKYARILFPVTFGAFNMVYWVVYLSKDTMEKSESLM
Sequence of α4β3γ2 GABAA receptor (P63079 26-473 partner): as the sequence (P63079 26-473 partner) above
Sequence of α4β3γ2 GABAA receptor (P18508 39-466): as the sequence (P18508 39-466) above
Sequence of GABAA/α1 receptors (P28472 26-473 partner, one chain of several): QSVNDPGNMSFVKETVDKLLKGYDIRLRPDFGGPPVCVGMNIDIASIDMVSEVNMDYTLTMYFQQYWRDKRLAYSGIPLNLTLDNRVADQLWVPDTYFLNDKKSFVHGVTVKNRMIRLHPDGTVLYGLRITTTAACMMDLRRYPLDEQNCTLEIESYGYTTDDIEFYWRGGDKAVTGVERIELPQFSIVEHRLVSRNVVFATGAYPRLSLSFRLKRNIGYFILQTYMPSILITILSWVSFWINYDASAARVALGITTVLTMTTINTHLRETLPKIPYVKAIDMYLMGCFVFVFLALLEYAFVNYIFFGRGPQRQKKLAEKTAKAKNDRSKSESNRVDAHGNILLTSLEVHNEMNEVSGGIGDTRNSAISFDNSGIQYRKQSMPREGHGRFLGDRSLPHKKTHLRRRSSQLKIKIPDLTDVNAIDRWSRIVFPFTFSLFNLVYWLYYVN

SMILES | pKi ([2]; Table I) | pKi ([3]; Table I) | pKi ([5]; Table I) | pKi ([6]; Table I) | pKi ([2]; Table 2) | pKi ([3]; Table 2) | pKi ([5]; Table 2) | pKi ([6]; Table 2) | further results
CC(C)(C)OC(=O)c1cc2c(cn1)[nH]c1ccccc12 [BCCt, β-carboline-3-carboxylate-tbutyl ester] | – | – | – | – | – | – | – | – | selectivity for α1 over other BzR subtypes (GABAA/α1 receptors): 20 fold; alcohol self administration (in words) ([1]; P and HAD rats, June et al. 2003, Foster et al. 2004): potently reduced alcohol self administration; anxiolytic activity (in words) ([1]; P and HAD rats): exhibits anxiolytic activity; sedative-hypnotic effects of alcohol (in words) ([1]; P rats and HAD rats): antagonized the sedative-hypnotic effects of alcohol
CN1Cc2c(CCl)ncn2-c2ccc(Cl)cc2C1=O [Ligand 12b] | < 6.52 | < 6.52 | < 6.52 | < 6.52 | – | – | – | – | pKi [4, 8]: 7.55
CCOCc1ncn2c1CN(C)C(=O)c1cc(Cl)ccc1-2 [Ligand 12c] | < 6.52 | < 6.52 | < 6.52 | < 6.52 | – | – | – | – | pKi [4, 8]: 7.08
C#Cc1ccc2c(c1)C(=O)N(C)Cc1c(C(=O)OC(C)(C)C)ncn1-2 [RY024] | – | – | – | – | – | – | – | – | Estimated maximum modulation ± SD (α2β3γ2 GABAA receptor; GABA EC20, α2β3γ2, extrapolated by curve-fit): −20.7±1.2%; efficacy / modulation of GABA elicited currents at α2 (in words) (α2β3γ2 GABAA receptor; oocytes): reduced GABA elicited currents in a concentration dependent manner; Estimated maximum modulation ± SD (α6β3γ2 GABAA receptor; GABA EC20, α6β3γ2, extrapolated by curve-fit): +35.2 ± 1.5%; efficacy / modulation of GABA elicited currents at α6 (in words) (α6β3γ2 GABAA receptor; oocytes): weakly stimulated; Estimated maximum modulation ± SD (α1β3γ2 GABAA receptor; GABA EC20, α1β3γ2, extrapolated by curve-fit): −31.0±2.5%; efficacy / modulation of GABA elicited currents at α1 (in words) (α1β3γ2 GABAA receptor; oocytes): reduced GABA elicited currents in a concentration dependent manner; Estimated maximum modulation ± SD (α4β3γ2 GABAA receptor; GABA EC20, α4β3γ2, extrapolated by curve-fit): +43.0 ± 15.9%; efficacy / modulation of GABA elicited currents at α4 (in words) (α4β3γ2 GABAA receptor; oocytes): weakly stimulated; reduction of the stimulation by 30 nM Diazepam (α3β3γ2 GABAA receptor; 1 μM compound, α3 containing receptors, GABA EC3): 96.3±4.7%; Estimated maximum modulation ± SD (α3β3γ2 GABAA receptor; GABA EC20, α3β3γ2, extrapolated by curve-fit): −3.3±2.1%; efficacy / modulation of GABA elicited currents at α3 (in words) (α3β3γ2 GABAA receptor; oocytes): no apparent modulation; Estimated maximum modulation ± SD (α5β3γ2 GABAA receptor; GABA EC20, α5β3γ2, extrapolated by curve-fit): −40.4±0.8%; efficacy / modulation of GABA elicited currents at α5 (in words) (α5β3γ2 GABAA receptor; oocytes): reduced GABA elicited currents in a concentration dependent manner; EC50 lower for α5 containing receptors than for α1 and α2 (α5β3γ2 GABAA receptor; reduction of GABA elicited currents): ~10 fold; triggering of chloride currents (in words) [7]: did not trigger chloride currents
CCOC(=O)c1ncoc1-c1ncn2c1[C@@H]1CCN1C(=O)c1cc(Br)ccc1-2 [RY062] | – | – | – | – | < 6.00 | < 6.00 | < 6.30 | < 5.70 | pKi [4, 9]: 6.76
CCOC(=O)c1ncoc1-c1ncn2c1[C@@H]1CCN1C(=O)c1cc(C#C[Si](C)(C)C)ccc1-2 [RY068] | – | – | – | – | < 6.30 | 6.06 | 6.30 | < 6.00 | pKi [4, 10]: 7.43
C#Cc1ccc2c(c1)C(=O)N1CC[C@H]1c1c(-c3ocnc3C(=O)OCC)ncn1-2 [RY069] | – | – | – | – | 6.16 | 6.21 | 6.30 | < 6.00 | pKi [4, 10]: 7.72
C#Cc1ccc2c(c1)C(=O)N1CC[C@@H]1c1c(-c3nc(C)no3)ncn1-2 [RY-I-29] | < 6.00 | < 6.00 | < 6.00 | < 6.00 | < 6.00 | < 6.00 | < 6.00 | < 6.00 | pKi [4, 9]: 6.80; pKi ([4]; Table I; means of two determinations; read-out: Ki α5): 6.80
